The values below come from patent US20060216820A1, “Use of retinoic esters of hyaluronic acid for the differentiation of totipotent stem cells” (SINTOFARM S.P.A., priority 2003, published 2006).

Experiment [1] has as its system P19 cells. The note with it: cited from earlier work.
Experiment [2] relates to human totipotent stem cells. Particulars: totipotent stem cells (Xu et al. 2002); cited from earlier work.
The test system of experiment [3] is GTR1 stem cells. Briefly: RT-PCR detection of cardiospecific transcripts (MHC, MLC) in GTR1 cells. The note with it: 1 μM chelerithrine with retinoic esters of hyaluronic acid 0.75 mg/ml, 10 days; puromycin-selected cardiomyocytes. The experiment is classed as cell-based, murine. An excerpt: Analysis of gene expression. Total RNA has been extracted from stem cells as described by Ventura et al. (Ventura C et al. J Biol. Chem. 1997; 272: 6685-6692). The levels of specific mRNAs have been analyzed by “RNase protection”, using [^32P]CTP radiolabeled cRNA probes (antisense mRNA) specific for each transcript of interest, according to a previously described protocol (Ventura C et al. J Biol. Chem. 1997; 272:6685-6692). Briefly, fragments corresponding to the main exons of GATA-4 (292 bp), Nkx-2.5 (414 bp) and prodynorphin (424 bp) genes have been inserted in the vector pCRII-TOPO (Invitrdgen). Transcription of the vector linearized With ApaI, BamHI, or XbaI respectively generated sense strand mRNA of prodynorphin, GATA-4, or Nkx-2.5. Transcription in presence of [^32P]CTP of the plasmid linearized with BamHI produced the antisense mRNA strand of prodynorphin and Nkx-2.5, while transcription of the vector linearized with XbaI generated the antisense mRNA strand of GATA-4. In some experiments the analysis of mRNA expression has been performed by means of RT-PCR, as described in (Ventura C, Maioli M. Circ Res. 2000:87:189-194).
GTR1 stem cells were used in these studies. […]

Experiment [4] deals with GTR1 stem cells. Description: In vitro nuclear run-off transcription in nuclei from treated GTR1 cells. The experiment is classed as cell-based, murine. Particulars: 1 μM chelerithrine with retinoic esters of hyaluronic acid 0.75 mg/ml, 10 days; puromycin-selected cardiomyocytes. The text has this: Gene transcription studies. Gene transcription rate has been analyzed in nuclei isolated by an approach of “in vitro nuclear run-off transcription”, previously described (Ventura C., J Biol Chem. 1997; 272:6685-6692.; Ventura C. et al. J Biol. Chem. 1998; 273:13383-13386.). Briefly, nuclei have been resuspended in buffer containing 50 mmol/L Tris/HCl, pH 8.0, 5 mmol/L MgCl2, 0.1 mmol/L EDTA, 40% glycerol, 0.1 mmol/L dithiothreitol, 0.5 mmol/L phenylmethylsulfonylfluoride, 1 μmol/L leupeptin, and 10 mmol/L β-mercaptoethanol. 100 μl of 2× reaction buffer (10 mmol/L Tris/HCl, pH 7.5, 5 mmol/L MgCl2, 0.3 mol/L KCl, 5 mmol/L dithiothreitol, 1 mmol/L of ATP, GTP, and CTP), and 5 μl of [α-^32P]UTP (3000 Ci/mmol) have been added to the nuclear suspension (90 μl). Samples were then incubated at room temperature for 15 min. The reaction has been stopped by digesting the DNA in presence of RNase-free DNase. The nuclear RNA has been isolated as described in Ventura C et al. J Biol Chem. 1997; 272:6685-6692. Approximately 5×10^6 cpm of ^32P labeled nuclear RNA were hybridized for 12 hours at 55° C. in presence of cold (not radioactive) probes of antisense mRNA of GATA-4, Nkx-2.5 or prodynorphin, generated, as described above, in absence of radiolabeled ribonucleotides. […]

As for `C[S+](C)[O-]` [DMSO, dimethylsulfoxide], the “cells that differentiate in embryonic cardiomyocytes” value in experiment [1] (P19 cells in presence of DMSO) was 15-20%. Also, the “overall efficiency of cardiogenic effect” value in experiment [1] (pluripotent murine cells in vitro) is “rather low”. Also, the “percentage of totipotent stem cells undergoing cardiomyocyte differentiation” value in experiment [2] is recorded as “unable to produce a significant increase”.

As for `COc1ccc2c(c[n+](C)c3c4cc5c(cc4ccc23)OCO5)c1OC` [chelerithrine], in experiment [3], the “effect of chelerithrine on the ester-induced expression of cardiospecific genes (MHC, MLC)” value was “antagonized”. In addition, in experiment [4], the “effect of chelerithrine on the ester-induced expression/transcription of cardiogenic genes (GATA-4, Nkx-2.5, prodynorphin)” value is recorded as “antagonized”.
